The values below are quoted from earlier work in patent US12337056B2, “Topical compositions and methods” (MARY KAY INC., priority 2018, dated 2025).

For the data set the following is noted: HyaClear Solution Presentation, Tri-K Industries, 2016.

In the case of Sodium hyaluronate, the skin barrier function entry is “improve skin barrier function”, the skin desquamation entry is listed as “reduce skin desquamation”, the skin lubricity result was “increase skin lubricity” and the skin moisturization entry was “increase skin moisturization”. Also, the skin roughness result was “reduce skin roughness”.
